From article PMC12344696, “Elucidation of the Synergistic Interaction Between Bilirubin and Casein Protein: An Integrated Spectroscopy and Computational Approach” (Biomacromolecules, 2025)

Biological target: T1, casein (CAS) protein; CAS micelles
T1 construct: gene CSN1S1; whole casein mixture (alpha, beta, kappa), self-assembled micelles above CMC
Assay: UV-vis absorption titration of BIL with casein, Hill1 fit
Details: phosphate buffer pH 7.3, 298 K; casein mixture 0.05-3 mg/mL across the CMC; converted from a mg/mL fit with average casein mass 22,500 Da; read-out: binding constant (converted)

For `C=CC1=C(C)/C(=C/c2[nH]c(Cc3[nH]c(/C=C4\NC(=O)C(C)=C4C=C)c(C)c3CCC(=O)O)c(CCC(=O)O)c2C)NC1=O` [BIL, bilirubin], the Kd was 33.3 µM.
